Assays:
Format in all cases: cell-based
MOLM-13 = MOLM-13 cellular growth inhibition assay (CellTiter-Glo); conditions: Homo sapiens, 168 h, MOLM-13 cells, 7 days of incubation
Experimental: (§1) HEK293 (Institute of Cytology Russian Academy of Science), MV4-11 (ATCC, CRL-9591), MOLM-13 (AcceGen, ABC-TC517S) were seeded at a density of 500 cells per well (HEK293) and 2000 cells per well (MV4-11, MOLM-13) in a 384-well clear bottom plate (Greiner Cat #781090) in 45 μl total volume of DMEM (PanEco, Cat #C420, Russia) or RPMI (PanEco, Cat #C330, Russia) with 10% FBS (HyClone Cat #SV30160.03). HEK293 were allowed to adhere overnight at 37° C., 5% CO2. 500× compounds solutions in DMSO (Sigma Cat #D2650) were prepared into Cmpnds plate (Diamond Well Plate, Axigen, Cat #P-384-120SQ-C-S) and DMSO only control was included. 1 μl of 500× compounds (Cmpnds plate) was added to 49 μl of culture medium into Dilution plate (Diamond Well Plate, Axigen, Cat #P-384-120SQ-C-S), mixed and then 5 μl of 10× compounds solutions were transferred to cells followed by centrifugation at 100 g for 1 min. Final DMSO concentration was 0.2%. After 3 days of incubation, 10 μl of 1× compounds were added to cells. After 7 days of incubation, 12 μl of CellTiter-Glo (Promega, CAT #G7572) were added to the cells, plate was centrifuged at 100 g for 1 min and luminescence signal was measured using Microplate Reader (CLARIOStar).

MV4-11 = MV4-11 cellular growth inhibition assay (CellTiter-Glo); conditions: Homo sapiens, 168 h, MV4-11 cells, 7 days of incubation
Experimental: as §1

[1] = HEK293 cellular growth inhibition assay (CellTiter-Glo); conditions: human, HEK293 cells, 7 days of incubation
Experimental: as §1

Structure (SMILES): Cc1c(CN2CCC3(CC2)CN(c2ncnc4ccc(CC(F)(F)F)cc24)C3)ccc2c1cc(C#N)n2CC1CNC(=O)C1 (centres unmarked) [Compound 51, 4-Methyl-1-[(5-oxopyrrolidin-3-yl)methyl]-5-({2-[6-(2,2,2-trifluoroethyl)quinazolin-4-yl]-2,7-diazaspiro[3.5]non-7-yl}methyl)-1H-indole-2-carbonitrile]
- CC50 (MOLM-13): 1000 to 5000 nM
- CC50 (MV4-11): 100 to 500 nM
- CC50 at 7 days [1]: 2000 to 5000 nM

Structure (SMILES): Cc1c(CN2CCC3(CC2)CN(c2ncnc4ccc(CC(F)(F)F)cc24)C3)ccc2c1cc(C#N)n2CCN1CCOCC1 [Compound 97, 4-Methyl-1-(2-morpholin-4-ylethyl)-5-({2-[6-(2,2,2-trifluoroethyl)quinazolin-4-yl]-2,7-diazaspiro[3.5]non-7-yl}methyl)-1H-indole-2-carbonitrile]
- CC50 (MOLM-13): 1000 to 5000 nM
- CC50 (MV4-11): 500 to 1000 nM
- CC50 at 7 days [1]: 2000 to 5000 nM

Structure (SMILES): Cc1c(CN2CCC3(CC2)CN(c2ncnc4ccc(CC(F)(F)F)cc24)C3)ccc2[nH]c(C#N)cc12 [Compound 68, 4-Methyl-5-({2-[6-(2,2,2-trifluoroethyl)quinazolin-4-yl]-2,7-diazaspiro[3.5]non-7-yl}methyl)-1H-indole-2-carbonitrile]
- CC50 (MOLM-13): 500 to 1000 nM
- CC50 (MV4-11): 100 to 500 nM
- CC50 at 7 days [1]: 2000 to 5000 nM

Structure (SMILES): CCCCS(=O)(=O)N1CCCN(C(C)Cn2c(C#N)cc3c(C)c(CN4CCC5(CC4)CN(c4ncnc6ccc(CC(F)(F)F)cc46)C5)ccc32)CC1 (centres unmarked) [Compound 73, 1-{2-[4-(Butylsulfonyl)-1,4-diazepan-1-yl]propyl}-4-methyl-5-({2-[6-(2,2,2-trifluoroethyl)quinazolin-4-yl]-2,7-diazaspiro[3.5]non-7-yl}methyl)-1H-indole-2-carbonitrile]
- CC50 (MOLM-13): 500 to 1000 nM
- CC50 (MV4-11): ≤ 100 nM
- CC50 at 7 days [1]: > 20000 nM

Structure (SMILES): Cc1c(CN2CCC3(CC2)CN(c2ncnc4ccc(CC(F)(F)F)cc24)C3)ccc2c1cc(C#N)n2Cc1ccc(=O)[nH]c1 [Compound 14, 4-Methyl-1-[(6-oxo-1,6-dihydropyridin-3-yl)methyl]-5-({2-[6-(2,2,2-trifluoroethyl)quinazolin-4-yl]-2,7-diazaspiro[3.5]non-7-yl}methyl)-1H-indole-2-carbonitrile]
- CC50 (MOLM-13): ≤ 100 nM
- CC50 (MV4-11): ≤ 100 nM
- CC50 at 7 days [1]: ≤ 2000 nM

Structure (SMILES): CNC(=O)NC12CC(Cn3c(C#N)cc4c(C)c(CN5CCC6(CC5)CN(c5ncnc7ccc(CC(F)(F)F)cc57)C6)ccc43)(C1)C2 [Compound 60, 1-[3-[[2-Cyano-4-methyl-5-[[2-[6-(2,2,2-trifluoroethyl)quinazolin-4-yl]-2,7-diazaspiro[3.5]nonan-7-yl]methyl]indol-1-yl]methyl]-1-bicyclo[1.1.1]pentanyl]-3-methyl-urea]
- CC50 (MOLM-13): ≤ 100 nM
- CC50 (MV4-11): ≤ 100 nM
- CC50 at 7 days [1]: 2000 to 5000 nM

Structure (SMILES): Cc1c(CN2CCC3(CC2)CN(c2ncnc4ccc(CC(F)(F)F)c(F)c24)C3)ccc2c1cc(C#N)n2CC1CNC(=O)CO1 (centres unmarked) [Compound 12, 5-[[2-[5-Fluoro-6-(2,2,2-trifluoroethyl)quinazolin-4-yl]-2,7-diazaspiro[3.5]nonan-7-yl]methyl]-4-methyl-1-[(5-oxomorpholin-2-yl)methyl]indole-2-carbonitrile]
- CC50 (MOLM-13): 500 to 1000 nM
- CC50 (MV4-11): 100 to 500 nM
- CC50 at 7 days [1]: ≤ 2000 nM

Structure (SMILES): N#Cc1cc2cc(CN3CCC4(CC3)CN(c3ncnc5ccc(CC(F)(F)F)cc35)C4)ccc2[nH]1 [Compound 98]
- CC50 (MOLM-13): 1000 to 5000 nM
- CC50 (MV4-11): 500 to 1000 nM
- CC50 at 7 days [1]: 5000 to 10000 nM

Structure (SMILES): CCS(=O)(=O)N1CCN([C@H](C)Cn2c(C#N)cc3c(C)c(CN4CCC5(CC4)CN(c4ncnc6ccc(CC(F)(F)F)cc46)C5)ccc32)C[C@@H]1C [Compound 25, 1-[(2R)-2-[(3S)-4-ethylsulfonyl-3-methyl-piperazin-1-yl]propyl]-4-methyl-5-[[2-[6-(2,2,2-trifluoroethyl)quinazolin-4-yl]-2,7-diazaspiro[3.5]nonan-7-yl]methyl]indole-2-carbonitrile]
- CC50 (MOLM-13): 500 to 1000 nM
- CC50 (MV4-11): 100 to 500 nM
- CC50 at 7 days [1]: 2000 to 5000 nM

Structure (SMILES): COc1cc2c(cc1CN1CCC3(CC1)CN(c1ncnc4ccc(CC(F)(F)F)cc14)C3)cc(C#N)n2CC(C)N1CCN(S(C)(=O)=O)CC1 (centres unmarked) [Compound 20, 6-Methoxy-1-{2-[4-(methylsulfonyl)piperazin-1-yl]propyl}-5-({2-[6-(2,2,2-trifluoroethyl)quinazolin-4-yl]-2,7-diazaspiro[3.5]non-7-yl}methyl)-1H-indole-2-carbonitrile]
- CC50 (MOLM-13): 1000 to 5000 nM
- CC50 (MV4-11): 100 to 500 nM
- CC50 at 7 days [1]: 2000 to 5000 nM

Structure (SMILES): Cc1c(CN2CCC3(CC2)CN(c2ncnc4ccc(CC(F)(F)F)cc24)C3)ccc2c1cc(C#N)n2C[C@H]1CC[C@H](NS(C)(=O)=O)CC1 [Compound 40, N-(trans-4-{[2-Cyano-4-methyl-5-({2-[6-(2,2,2-trifluoroethyl)quinazolin-4-yl]-2,7-diazaspiro[3.5]non-7-yl}methyl)-1H-indol-1-yl]methyl}cyclohexyl)methanesulfonamide]
- CC50 (MOLM-13): 1000 to 5000 nM
- CC50 (MV4-11): 100 to 500 nM
- CC50 at 7 days [1]: 10000 to 20000 nM

Structure (SMILES): CC(=O)NC12CC(Cn3c(C#N)cc4c(C)c(CN5CCC6(CC5)CN(c5ncnc7ccc(CC(F)(F)F)cc57)C6)ccc43)(C1)C2 [Compound 59, N-[3-[[2-Cyano-4-methyl-5-[[2-[6-(2,2,2-trifluoroethyl)quinazolin-4-yl]-2,7-diazaspiro[3.5]nonan-7-yl]methyl]indol-1-yl]methyl]-1-bicyclo[1.1.1]pentanyl]acetamide]
- CC50 (MOLM-13): ≤ 100 nM
- CC50 (MV4-11): ≤ 100 nM
- CC50 at 7 days [1]: 2000 to 5000 nM

Structure (SMILES): Cc1c(CN2CCC3(CC2)CN(c2ncnc4ccc(CC(F)(F)F)cc24)C3)ccc2c1cc(C#N)n2C[C@@H](C)N1CCN(S(C)(=O)=O)[C@@H](C)C1 [Compound 27, 4-methyl-1-[(2R)-2-[(3S)-3-methyl-4-methylsulfonyl-piperazin-1-yl]propyl]-5-[[2-[6-(2,2,2-trifluoroethyl)quinazolin-4-yl]-2,7-diazaspiro[3.5]nonan-7-yl]methyl]indole-2-carbonitrile]
- CC50 (MOLM-13): 100 to 500 nM
- CC50 (MV4-11): ≤ 100 nM
- CC50 at 7 days [1]: 5000 to 10000 nM

Structure (SMILES): C=CC(=O)N1CCN(CCCn2c(C#N)cc3c(C)c(CN4CCC5(CC4)CN(c4ncnc6ccc(CC(F)(F)F)cc46)C5)ccc32)CC1 [Compound 66, 4-methyl-1-[3-(4-prop-2-enoylpiperazin-1-yl)propyl]-5-[[2-[6-(2,2,2-trifluoroethyl)quinazolin-4-yl]-2,7-diazaspiro[3.5]nonan-7-yl]methyl]indole-2-carbonitrile]
- CC50 (MOLM-13): 100 to 500 nM
- CC50 (MV4-11): 100 to 500 nM
- CC50 at 7 days [1]: 2000 to 5000 nM

Structure (SMILES): Cc1c(CN2CCC3(CC2)CN(c2ncnc4ccc(CC(F)(F)F)cc24)C3)ccc2c1cc(C#N)n2CC12CC(NC=O)(C1)C2 [Compound 95, (3-{[2-Cyano-4-methyl-5-({2-[6-(2,2,2-trifluoroethyl)quinazolin-4-yl]-2,7-diazaspiro[3.5]non-7-yl}methyl)-1H-indol-1-yl]methyl}bicyclo[1.1.1]pent-1-yl)formamide]
- CC50 (MOLM-13): 100 to 500 nM
- CC50 (MV4-11): ≤ 100 nM
- CC50 at 7 days [1]: 2000 to 5000 nM

Structure (SMILES): Cc1c(CN2CCC3(CC2)CN(c2ncnc4ccc(CC(F)(F)F)cc24)C3)ccc2c1cc(C#N)n2CC1CNC(=O)NC1 [Compound 4, 4-Methyl-1-[(2-oxohexahydropyrimidin-5-yl)methyl]-5-[[2-[6-(2,2,2-trifluoroethyl)quinazolin-4-yl]-2,7-diazaspiro[3.5]nonan-7-yl]methyl]indole-2-carbonitrile]
- CC50 (MOLM-13): 500 to 1000 nM
- CC50 (MV4-11): 100 to 500 nM

Structure (SMILES): Cc1c(CN2CCC3(CC2)CN(c2ncnc4ccc(CC(F)(F)F)cc24)C3)ccc2c1cc(C#N)n2CC1CCC(=O)NC1 (centres unmarked) [Compound 72, 4-Methyl-1-[(6-oxopiperidin-3-yl)methyl]-5-({2-[6-(2,2,2-trifluoroethyl)quinazolin-4-yl]-2,7-diazaspiro[3.5]non-7-yl}methyl)-1H-indole-2-carbonitrile]
- CC50 (MOLM-13): 500 to 1000 nM
- CC50 (MV4-11): 100 to 500 nM
- CC50 at 7 days [1]: ≤ 2000 nM

Structure (SMILES): Cc1c(CN2CCC3(CC2)CN(c2ncnc4cnc(CC(F)(F)F)cc24)C3)ccc2c1cc(C#N)n2CC(C)N1CCN(S(C)(=O)=O)CC1 (centres unmarked) [Compound 45, 4-Methyl-1-{2-[4-(methylsulfonyl)piperazin-1-yl]propyl}-5-({2-[6-(2,2,2-trifluoroethyl)pyrido[3,4-d]pyrimidin-4-yl]-2,7-diazaspiro[3.5]non-7-yl}methyl)-1H-indole-2-carbonitrile]
- CC50 (MOLM-13): 1000 to 5000 nM
- CC50 (MV4-11): 100 to 500 nM
- CC50 at 7 days [1]: 5000 to 10000 nM

Structure (SMILES): Cc1c(CN2CCC3(CC2)CN(c2nncc4ccc(CC(F)(F)F)cc24)C3)ccc2c1cc(C#N)n2CC(C)N1CCN(S(C)(=O)=O)CC1 (centres unmarked) [Compound 79, 4-Methyl-1-[2-(4-methylsulfonylpiperazin-1-yl)propyl]-5-[[2-[7-(2,2,2-trifluoroethyl)phthalazin-1-yl]-2,7-diazaspiro[3.5]nonan-7-yl]methyl]indole-2-carbonitrile]
- CC50 (MOLM-13): 1000 to 5000 nM
- CC50 (MV4-11): 500 to 1000 nM
- CC50 at 7 days [1]: 5000 to 10000 nM

Structure (SMILES): CN(C)C/C=C/C(=O)N1CCN(CCn2c(C#N)cc3cc(CN4CCC5(CC4)CN(c4ncnc6ccc(CC(F)(F)F)cc46)C5)ccc32)CC1 [Compound 99]
- CC50 (MOLM-13): 1000 to 5000 nM
- CC50 (MV4-11): 1000 to 5000 nM
- CC50 at 7 days [1]: ≤ 2000 nM

— patent US20250163061A1 (Bala Therapeutics, Inc., priority 2021, published 2025)
